Data on 17 molecules can be found in patent US11173151B2, “Substituted triazole derivatives and uses thereof” (BAYER AKTIENGESELLSCHAFT, priority 2017, dated 2021).

The term pIC50 denotes the negative decadic logarithm of the IC50, by convention in mol/L.

Assay [1] addresses T1, human V1a receptor (Homo sapiens, UniProt P37288).
T1 construct: expressed in transfected cells; host or cells: CHO K1 (ATCC), also stably transfected with a modified aequorin
Put plainly: Cellular in vitro assay for determining vasopressin receptor activity, V1a receptor cell line (CHO, aequorin luminescence). The format is cell-based. To be noted: for pIC50: CHO cell line transfected with human V1a receptor, [Arg]-vasopressin at EC50 concentration, read-out: IC50 hV1a; for ratio IC50 hV2/hV1a: selectivity ratio IC50 hV2 / IC50 hV1a. In a few lines: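 CHO K1/aequorin cells, coelenterazine 5 μg/ml o/n; cpd 10 min; [Arg]-vasopressin at EC50; luminescence read immediately; IC50.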

The target in assay [2] is T2, human V2 receptor (Homo sapiens, UniProt P30518).
T2 construct: expressed in transfected cells; host or cells: CHO K1 (ATCC) expressing firefly luciferase under a CRE-responsive promoter
T2 sequence (P30518 whole entry): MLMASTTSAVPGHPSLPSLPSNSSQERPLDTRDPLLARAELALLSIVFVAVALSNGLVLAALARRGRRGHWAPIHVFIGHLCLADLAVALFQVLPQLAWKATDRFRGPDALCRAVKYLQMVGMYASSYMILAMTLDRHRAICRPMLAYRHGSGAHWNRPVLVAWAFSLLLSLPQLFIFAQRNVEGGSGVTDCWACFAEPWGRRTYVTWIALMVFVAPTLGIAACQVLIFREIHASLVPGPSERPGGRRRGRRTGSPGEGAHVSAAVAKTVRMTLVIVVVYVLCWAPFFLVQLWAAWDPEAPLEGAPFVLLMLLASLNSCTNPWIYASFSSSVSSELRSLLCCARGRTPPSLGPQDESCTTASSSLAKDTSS
Put plainly: Cellular in vitro assay for determining vasopressin receptor activity, V2 receptor cell line (CHO, CRE-luciferase). To be noted: CHO cell line transfected with human V2 receptor; [Arg8]-vasopressin at EC50 concentration; read-out: IC50 hV2. In kind it is cell-based.

Molecules are shown by their SMILES. pIC50: −log10 of the molar value.

T1 sequence (P37288 whole entry): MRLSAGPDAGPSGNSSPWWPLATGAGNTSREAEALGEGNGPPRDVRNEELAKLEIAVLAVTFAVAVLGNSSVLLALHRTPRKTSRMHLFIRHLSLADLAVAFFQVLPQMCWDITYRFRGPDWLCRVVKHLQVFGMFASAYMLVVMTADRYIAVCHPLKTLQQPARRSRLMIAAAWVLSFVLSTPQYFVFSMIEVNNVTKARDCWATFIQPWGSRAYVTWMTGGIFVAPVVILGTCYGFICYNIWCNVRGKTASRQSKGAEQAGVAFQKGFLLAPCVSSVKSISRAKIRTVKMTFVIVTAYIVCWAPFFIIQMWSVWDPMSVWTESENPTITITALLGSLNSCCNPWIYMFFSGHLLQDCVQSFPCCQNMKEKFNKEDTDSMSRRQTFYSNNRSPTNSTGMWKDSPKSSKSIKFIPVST

`O=C(c1cccc(C(F)(F)F)c1-n1cnc(Cn2nc(-c3ccc(Cl)cc3)n(C[C@H](O)C(F)(F)F)c2=O)n1)N1CCS(=O)(=O)CC1` [Example 418, 5-(4-Chlorophenyl)-2-[(1-{2-[(1,1-dioxidothiomorpholin-4-yl)carbonyl]-6-(trifluoromethyl)phenyl}-1H-1,2,4-triazol-3-yl)methyl]-4-[(2S)-3,3,3-trifluoro-2-hydroxypropyl]-2,4-dihydro-3H-1,2,4-triazol-3-one]: in assay [1], the negative logarithm of the IC50 (pIC50) was 6.20 and the “ratio IC50 hV2/hV1a” value worked out at 50.4. The pIC50 in assay [2] is 4.49.
`O=C(NCC1CC1)c1cccc(C(F)(F)F)c1-n1cnc(Cn2nc(-c3ccc(Cl)cc3)n(C[C@H](O)C(F)(F)F)c2=O)n1` [Example 419, 2-[3-({3-(4-Chlorophenyl)-5-oxo-4-[(2S)-3,3,3-trifluoro-2-hydroxypropyl]-4,5-dihydro-1H-1,2,4-triazol-1-yl}methyl)-1H-1,2,4-triazol-1-yl]-N-(cyclopropylmethyl)-3-(trifluoromethyl)benzamide]: the pIC50 was 7.02 in assay [1] and 5.99 in assay [2]. Besides, in assay [1], the “ratio IC50 hV2/hV1a” value is recorded as 10.7.
On the same counts, the results for `O=C(NCCC(F)(F)F)c1cccc(C(F)(F)F)c1-n1cnc(Cn2nc(-c3ccc(Cl)cc3)n(C[C@H](O)C(F)(F)F)c2=O)n1` [Example 421, 2-[3-({3-(4-Chlorophenyl)-5-oxo-4-[(2S)-3,3,3-trifluoro-2-hydroxypropyl]-4,5-dihydro-1H-1,2,4-triazol-1-yl}methyl)-1H-1,2,4-triazol-1-yl]-3-(trifluoromethyl)-N-(3,3,3-trifluoropropyl)benzamide] are 7.66, 6.43 and 16.8.
Take `COC[C@@H]1CCCN1C(=O)c1cccc(C(F)(F)F)c1-n1cnc(Cn2nc(-c3ccc(Cl)cc3)n(C[C@H](O)C(F)(F)F)c2=O)n1` [Example 423, 5-(4-Chlorophenyl)-2-({1-[2-{[(2S)-2-(methoxymethyl)pyrrolidin-1-yl]carbonyl}-6-(trifluoromethyl)phenyl]-1H-1,2,4-triazol-3-yl}methyl)-4-[(2S)-3,3,3-trifluoro-2-hydroxypropyl]-2,4-dihydro-3H-1,2,4-triazol-3-one]: in assay [1], the negative-log IC50 (pIC50) was 7.40 and the “ratio IC50 hV2/hV1a” value is 472.5. Further, the negative logarithm of the IC50 (pIC50) in assay [2] is 4.72.
`CC(C)(N)CNC(=O)c1cc(F)ccc1-n1cnc(Cn2nc(-c3ccc(Cl)cc3)n(C[C@H](O)C(F)(F)F)c2=O)n1` [Example 424, N-(2-Amino-2-methylpropyl)-2-[3-({3-(4-chlorophenyl)-5-oxo-4-[(2S)-3,3,3-trifluoro-2-hydroxypropyl]-4,5-dihydro-1H-1,2,4-triazol-1-yl}methyl)-1H-1,2,4-triazol-1-yl]-5-fluorobenzamide]: in assay [1], the negative-log IC50 (pIC50) was 7.94 and the “ratio IC50 hV2/hV1a” value is reported as 230.4. Further, the negative-log IC50 (pIC50) in assay [2] was 5.58.
Take `CNC(=O)c1cc(F)ccc1-n1cnc(Cn2nc(-c3ccc(Cl)cc3)n(C[C@H](O)C(F)(F)F)c2=O)n1` [Example 425, 2-[3-({3-(4-Chlorophenyl)-5-oxo-4-[(2S)-3,3,3-trifluoro-2-hydroxypropyl]-4,5-dihydro-1H-1,2,4-triazol-1-yl}methyl)-1H-1,2,4-triazol-1-yl]-5-fluoro-N-methylbenzamide]: in assay [1], the negative-log IC50 (pIC50) was 8.01 and the “ratio IC50 hV2/hV1a” value was found to be 10.2. In addition, in assay [2], the negative logarithm of the IC50 (pIC50) is 7.00.
As to `O=C(NCC(F)(F)F)c1cc(F)ccc1-n1cnc(Cn2nc(-c3ccc(Cl)cc3)n(C[C@H](O)C(F)(F)F)c2=O)n1` [Example 426, 2-[3-({3-(4-Chlorophenyl)-5-oxo-4-[(2S)-3,3,3-trifluoro-2-hydroxypropyl]-4,5-dihydro-1H-1,2,4-triazol-1-yl}methyl)-1H-1,2,4-triazol-1-yl]-5-fluoro-N-(2,2,2-trifluoroethyl)benzamide], in assay [1], the pIC50 was 7.72 and the “ratio IC50 hV2/hV1a” value was determined as 6.6. Also, the pIC50 in assay [2] was 6.90.
For `O=C(NCC(F)(F)F)c1cc(Cl)ccc1-n1cnc(Cn2nc(-c3ccc(Cl)cc3)n(C[C@H](O)C(F)(F)F)c2=O)n1` [Example 427, 5-Chloro-2-[3-({3-(4-chlorophenyl)-5-oxo-4-[(2S)-3,3,3-trifluoro-2-hydroxypropyl]-4,5-dihydro-1H-1,2,4-triazol-1-yl}methyl)-1H-1,2,4-triazol-1-yl]-N-(2,2,2-trifluoroethyl)benzamide], the negative-log IC50 (pIC50) was 7.68 in assay [1] and 7.14 in assay [2]. Besides, in assay [1], the “ratio IC50 hV2/hV1a” value was determined as 3.5.
Turning to `O=C(NCC(F)(F)F)c1ncccc1-n1cnc(Cn2nc(-c3ccc(Cl)cc3)n(C[C@H](O)C(F)(F)F)c2=O)n1` [Example 428, 3-[3-({3-(4-Chlorophenyl)-5-oxo-4-[(2S)-3,3,3-trifluoro-2-hydroxypropyl]-4,5-dihydro-1H-1,2,4-triazol-1-yl}methyl)-1H-1,2,4-triazol-1-yl]-N-(2,2,2-trifluoroethyl)pyridine-2-carboxamide], the results for the pIC50 in assay [1] and in assay [2] were 7.39 and 5.89, respectively. Besides, in assay [1], the “ratio IC50 hV2/hV1a” value was found to be 31.5.
On the same counts, the results for `O=C(NC1CC1)c1ncccc1-n1cnc(Cn2nc(-c3ccc(Cl)cc3)n(C[C@H](O)C(F)(F)F)c2=O)n1` [Example 431, 3-[3-({3-(4-Chlorophenyl)-5-oxo-4-[(2S)-3,3,3-trifluoro-2-hydroxypropyl]-4,5-dihydro-1H-1,2,4-triazol-1-yl}methyl)-1H-1,2,4-triazol-1-yl]-N-cyclopropylpyridine-2-carboxamide] are 7.78, 5.96 and 66.7.
As to `O=C(NCC1CC1)c1ncccc1-n1cnc(Cn2nc(-c3ccc(Cl)cc3)n(C[C@H](O)C(F)(F)F)c2=O)n1` [Example 432, 3-[3-({3-(4-Chlorophenyl)-5-oxo-4-[(2S)-3,3,3-trifluoro-2-hydroxypropyl]-4,5-dihydro-1H-1,2,4-triazol-1-yl}methyl)-1H-1,2,4-triazol-1-yl]-N-(cyclopropylmethyl)pyridine-2-carboxamide], the pIC50 is 7.35 in assay [1] and 6.02 in assay [2]. Besides, the “ratio IC50 hV2/hV1a” value in assay [1] turned out to be 21.2.
For `NC(=O)[C@H]1CC(F)(F)CN1C(=O)c1ncccc1-n1cnc(Cn2nc(-c3ccc(Cl)cc3)n(C[C@H](O)C(F)(F)F)c2=O)n1` [Example 433, 1-({3-[3-({3-(4-Chlorophenyl)-5-oxo-4-[(2S)-3,3,3-trifluoro-2-hydroxypropyl]-4,5-dihydro-1H-1,2,4-triazol-1-yl}methyl)-1H-1,2,4-triazol-1-yl]pyridin-2-yl}carbonyl)-4,4-difluoro-D-prolinamide], in that order: 7.15, 5.66 and 31.0.
As for `NC(=O)[C@@H]1CC(F)(F)CN1C(=O)c1ncccc1-n1cnc(Cn2nc(-c3ccc(Cl)cc3)n(C[C@H](O)C(F)(F)F)c2=O)n1` [Example 434, 1-({3-[3-({3-(4-Chlorophenyl)-5-oxo-4-[(2S)-3,3,3-trifluoro-2-hydroxypropyl]-4,5-dihydro-1H-1,2,4-triazol-1-yl}methyl)-1H-1,2,4-triazol-1-yl]pyridin-2-yl}carbonyl)-4,4-difluoro-L-prolinamide], the results for the pIC50 in assay [1] and in assay [2] were 7.09 and 5.57, respectively. Besides, the “ratio IC50 hV2/hV1a” value in assay [1] worked out at 32.9.
With `O=C(c1ncccc1-n1cnc(Cn2nc(-c3ccc(Cl)cc3)n(C[C@H](O)C(F)(F)F)c2=O)n1)N1CCC(F)(F)C1` [Example 437, 5-(4-Chlorophenyl)-2-[(1-{2-[(3,3-difluoropyrrolidin-1-yl)carbonyl]pyridin-3-yl}-1H-1,2,4-triazol-3-yl)methyl]-4-[(2S)-3,3,3-trifluoro-2-hydroxypropyl]-2,4-dihydro-3H-1,2,4-triazol-3-one], in assay [1], the pIC50 is 7.39 and the “ratio IC50 hV2/hV1a” value was 91.4. Besides, in assay [2], the pIC50 is 5.43.
For `CC1(C)CN(C(=O)c2ncccc2-n2cnc(Cn3nc(-c4ccc(Cl)cc4)n(C[C@H](O)C(F)(F)F)c3=O)n2)CCO1` [Example 438, 5-(4-Chlorophenyl)-2-[(1-{2-[(2,2-dimethylmorpholin-4-yl)carbonyl]pyridin-3-yl}-1H-1,2,4-triazol-3-yl)methyl]-4-[(2S)-3,3,3-trifluoro-2-hydroxypropyl]-2,4-dihydro-3H-1,2,4-triazol-3-one], the negative logarithm of the IC50 (pIC50) in assay [1] is 7.07; in assay [2], 5.05. The “ratio IC50 hV2/hV1a” value in assay [1] turned out to be 103.5.
Consider `O=C(NC1CC(F)(F)C1)c1ncccc1-n1cnc(Cn2nc(-c3ccc(Cl)cc3)n(C[C@H](O)C(F)(F)F)c2=O)n1` [Example 439, 3-[3-({3-(4-Chlorophenyl)-5-oxo-4-[(2S)-3,3,3-trifluoro-2-hydroxypropyl]-4,5-dihydro-1H-1,2,4-triazol-1-yl}methy)-1H-1,2,4-triazol-1-yl]-N-(3,3-difluorocyclobutyl)pyridine-2-carboxamide], for which, in assay [1], the pIC50 was 7.27 and the “ratio IC50 hV2/hV1a” value is on record as 24.0. Moreover, in assay [2], the pIC50 is 5.89.
In the case of `O=C1CN(C(=O)c2ncccc2-n2cnc(Cn3nc(-c4ccc(Cl)cc4)n(C[C@H](O)C(F)(F)F)c3=O)n2)CCN1` [Example 443, 4-({3-[3-({3-(4-Chlorophenyl)-5-oxo-4-[(2S)-3,3,3-trifluoro-2-hydroxypropyl]-4,5-dihydro-1H-1,2,4-triazol-1-yl}methyl)-1H-1,2,4-triazol-1-yl]pyridin-2-yl}carbonyl)piperazin-2-one], the pIC50 in assay [1] was 6.66; in assay [2] it was 4.65. The “ratio IC50 hV2/hV1a” value in assay [1] is given as 102.3.
